Columns and labels:
TMPRSS4 serine protease = target: T1, TMPRSS4 serine protease (Homo sapiens, UniProt Q9NRS4); assay: Inhibitory effect on TMPRSS4 serine protease activity using peptide substrate; type: biochemical; settings: kallikrein peptide substrate 100 μM, DMSO negative control; for inhibition at 30 µM: read-out: Intracellular protease activity Inhibition % 30 uM; for inhibition at 10 µM: read-out: Intracellular protease activity Inhibition % 10 uM
T1 construct: TMPRSS4 serine protease domain (205th Val˜437th Leu) was cloned in pET21b/NdeI-XhoI; inferred from pET21b XhoI cloning and Ni-NTA purification) (C); made in house; host or cells: E. coli BL21 (DE3)
Summary of the method: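 Human TMPRSS4 serine protease domain (Val205–Leu437), E. coli-expressed, Ni-NTA purified and enterokinase-activated. Hydrolysis of 100 μM fluorogenic peptide in 50 mM Tris-HCl pH 8.0, 10 mM CaCl2, 1 μM ZnCl2 read as fluorescence (ex 385/em 455 nm) every 5 min for 150 min; DMSO as negative control.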

[1] = test system: TMPRSS4 over-expressing colorectal cancer cell line SW480; assay: Inhibitory effect on infiltration of cancer cells over-expressing TMPRSS4 (matrigel trans-well); type: cell-based; settings: Homo sapiens, SW480 over-expressing TMPRSS4, 48 hours, read-out: Inhibition rate of target-expressing colorectal cancer cell activity (%, 0.1~2 uM)
Description: The cells were distributed in a 6-well plate at the density of 3×10^5 cells/well, followed by transfection. 48 hours later, the medium was replaced with a selection medium (800 μg/ml G418 medium). G418-resistant clone was separated, followed by culture for 2 weeks, during which selection was performed.
The cancer cell line constructed in step 1 was distributed in a 24-well trans-well plate (8 μm pore size; Costar, USA) whose porous membrane was coated with 100 μl of matrigel (BD Biosciences, USA) diluted with serum-free medium at the concentration of 250 μg/ml, which stood at room temperature for 1 hour for solidification. Lower chamber of the trans-well plate was coated with 100 μl of collagen type I (Sigma) at the concentration of 20 μg/ml. […] While culturing the cells in a 37, 5% CO2 incubator for 48 hours, cell migration from the upper chamber to lower chamber was allowed. […] The excessive crystal violet solution was washed away with distilled water. The migrated cell number was counted from 5 randomly selected areas (×200). The experiment was repeated at least twice under the same condition, and the representative result was presented.
The inhibitory effect of each compound on the infiltration of TMPRSS4 over-expressing colorectal cancer cell line SW480 was calculated by Mathematical Formula 1, which presents the number of infiltrated cells with % by the number of infiltrated cells in the negative control treated with DMSO. Infiltration Inhibition Rate (%)=100−Infiltrated cell number with the treatment of each compound/Infiltrated cell number with the treatment of DMSO×100 [Mathematical Formula 1]

T1 sequence (Q9NRS4 205-437): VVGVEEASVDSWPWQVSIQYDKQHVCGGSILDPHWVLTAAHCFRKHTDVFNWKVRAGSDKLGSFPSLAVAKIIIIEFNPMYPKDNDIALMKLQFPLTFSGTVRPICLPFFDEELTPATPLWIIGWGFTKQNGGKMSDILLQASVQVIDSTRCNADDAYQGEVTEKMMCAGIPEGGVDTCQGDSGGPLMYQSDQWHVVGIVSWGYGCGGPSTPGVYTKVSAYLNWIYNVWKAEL

## O=C(Nc1nc(-c2ccccc2)cs1)c1cc(Cl)ccc1O [Example 53, 5-chloro-2-hydroxy-N-(4-phenylthiazole-2-yl)benzamide]
TMPRSS4 serine protease; 30 uM compound
  inhibition at 30 µM: 91%
TMPRSS4 serine protease; 100 uM compound, read-out: Intracellular protease activity Inhibition % 100 uM
  inhibition at 100 µM: 98%
[1]
  inhibition at 0.1 µM: 34%
[1]; 1 uM
  inhibition at 1 µM: 56%

## O=C(Nc1cc(C(F)(F)F)cc(C(F)(F)F)c1)c1cc([N+](=O)[O-])ccc1O [Example 55, N-(3,5-bis(trifluoromethyl)phenyl)-2-hydroxy-5-nitrobenzamide]
TMPRSS4 serine protease; 10 uM compound
  inhibition at 10 µM: 33%
TMPRSS4 serine protease; 30 uM compound
  inhibition at 30 µM: 78%
[1]
  inhibition at 0.1 µM: 26%

## O=C(Nc1cc(C(F)(F)F)c(Br)c(C(F)(F)F)c1)c1cc(Cl)ccc1O [Example 65, N-(4-bromo-3,5-bis(trifluoromethyl)phenyl)-5-chloro-2-hydroxybenzamide]
TMPRSS4 serine protease; 10 uM compound
  Intracellular protease activity Inhibition % 10 uM: 58%
  inhibition at 10 µM: 51 to 100%
TMPRSS4 serine protease; 30 uM compound
  Intracellular protease activity Inhibition % 30 uM: 85%
[1]
  inhibition at 0.1 µM: 53%
